Assays:
Assay in all cases: cells
[1] = test system: CHP-212; format: functional, cell-based; details: Homo sapiens
Description: SANGER: Inhibition of human CHP-212 cell growth in a cell viability assay.

[2] = test system: A204; format: functional, cell-based; details: Homo sapiens;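 note: growth inhibition of human A204 cells, read out with a cell viability assay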
Description: SANGER: Inhibition of human A204 cell growth in a cell viability assay.

[3] = test system: SCC-25; format: functional, cell-based; details: Homo sapiens;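 note: growth inhibition of SCC-25 cells, measured with a cell viability assay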
Description: SANGER: Inhibition of human SCC-25 cell growth in a cell viability assay.

[4] = test system: CAKI-1; format: functional, cell-based; details: Homo sapiens;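 note: growth inhibition of CAKI-1 cells, measured by a cell viability assay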
Description: SANGER: Inhibition of human CAKI-1 cell growth in a cell viability assay.

[5] = test system: VM-CUB-1; format: functional, cell-based; details: Homo sapiens;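 note: cell viability assay measuring growth inhibition of the human VM-CUB-1 cell line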
Description: SANGER: Inhibition of human VM-CUB-1 cell growth in a cell viability assay.

[6] = test system: BHT-101; format: functional, cell-based; details: Homo sapiens
Description: SANGER: Inhibition of human BHT-101 cell growth in a cell viability assay.

[7] = test system: SW780; format: functional, cell-based; details: Homo sapiens;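 note: growth inhibition of the cells, read out with a cell viability assay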
Description: SANGER: Inhibition of human SW780 cell growth in a cell viability assay.

[8] = test system: EFM-19; format: functional, cell-based; details: Homo sapiens;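 note: growth inhibition of human EFM-19 cells, measured in a cell viability assay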
Description: SANGER: Inhibition of human EFM-19 cell growth in a cell viability assay.

[9] = test system: NCI-H2030; format: functional, cell-based; details: Homo sapiens;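 note: growth inhibition of human NCI-H2030 cells, read out by a cell viability assay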
Description: SANGER: Inhibition of human NCI-H2030 cell growth in a cell viability assay.

[10] = test system: 8505C; format: functional, cell-based; details: Homo sapiens
Description: SANGER: Inhibition of human 8505C cell growth in a cell viability assay.

[11] = test system: NUGC-3; format: functional, cell-based; details: Homo sapiens;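 note: growth inhibition of human NUGC-3 cells, read out with a cell viability assay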
Description: SANGER: Inhibition of human NUGC-3 cell growth in a cell viability assay.

[12] = test system: LCLC-97TM1; format: functional, cell-based; details: Homo sapiens;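 note: cell viability assay measuring growth inhibition of human LCLC-97TM1 cells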
Description: SANGER: Inhibition of human LCLC-97TM1 cell growth in a cell viability assay.

[13] = test system: EFO-21; format: functional, cell-based; details: Homo sapiens;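 note: growth inhibition of EFO-21 cells measured with a viability assay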
Description: SANGER: Inhibition of human EFO-21 cell growth in a cell viability assay.

[14] = test system: S-117; format: functional, cell-based; details: Homo sapiens
Description: SANGER: Inhibition of human S-117 cell growth in a cell viability assay.

[15] = test system: HuTu80; format: functional, cell-based, Homo sapiens, HUTU-80; details: Homo sapiens, HuTu80;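 note: growth inhibition of HuTu80 human cells, determined with a cell viability readout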
Description: SANGER: Inhibition of human HUTU-80 cell growth in a cell viability assay.

[16] = test system: KYSE-70 cell line; format: functional, cell-based; details: Homo sapiens;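 note: cell viability assay read-out, with IC50 expressing suppression of KYSE-70 cell growth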
Description: SANGER: Inhibition of human KYSE-70 cell growth in a cell viability assay.

[17] = test system: NCI-H2342; format: functional, cell-based; details: Homo sapiens;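 note: growth inhibition of the cancer cell line, determined with a cell viability assay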
Description: SANGER: Inhibition of human NCI-H2342 cell growth in a cell viability assay.

[18] = test system: MDA-MB-231; format: functional, cell-based; details: Homo sapiens
Description: SANGER: Inhibition of human MDA-MB-231 cell growth in a cell viability assay.

[19] = test system: NCI-H2087; format: functional, cell-based; details: Homo sapiens;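 note: growth inhibition determined with a cell viability readout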
Description: SANGER: Inhibition of human NCI-H2087 cell growth in a cell viability assay.

[20] = test system: HCT-116; format: functional, cell-based; details: Homo sapiens
Description: SANGER: Inhibition of human HCT-116 cell growth in a cell viability assay.

[21] = test system: NCI-H292; format: functional, cell-based; details: Homo sapiens;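 note: growth inhibition of NCI-H292 cells, read out with a cell viability assay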
Description: SANGER: Inhibition of human NCI-H292 cell growth in a cell viability assay.

[22] = test system: SW1990; format: functional, cell-based; details: Homo sapiens;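 note: cell growth inhibition determined with a viability assay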
Description: SANGER: Inhibition of human SW1990 cell growth in a cell viability assay.

[23] = test system: HuCCT-1; format: functional, cell-based, HuCCT1; details: Homo sapiens;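 note: growth inhibition of HuCCT-1 cells, read out by a cell viability assay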
Description: SANGER: Inhibition of human HuCCT1 cell growth in a cell viability assay.

[24] = test system: DMS-273; format: functional, cell-based; details: Homo sapiens
Description: SANGER: Inhibition of human DMS-273 cell growth in a cell viability assay.

[25] = test system: NCI-H1755; format: functional, cell-based; details: Homo sapiens;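 note: cell viability readout used to measure growth inhibition of NCI-H1755 cells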
Description: SANGER: Inhibition of human NCI-H1755 cell growth in a cell viability assay.

[26] = test system: DoTc2-4510; format: functional, cell-based; details: Homo sapiens
[27] = test system: EFO-27; format: functional, cell-based; details: Homo sapiens;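 note: growth inhibition of EFO-27 cells, read out with a cell viability assay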
Description: SANGER: Inhibition of human EFO-27 cell growth in a cell viability assay.

[28] = test system: HuO-3N1; format: functional, cell-based; details: Homo sapiens;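 note: cell viability readout used to measure how strongly compounds suppress proliferation of human HuO-3N1 cells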
Description: SANGER: Inhibition of human HuO-3N1 cell growth in a cell viability assay.

[29] = test system: HSC-4; format: functional, cell-based; details: Homo sapiens;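 note: growth inhibition of human HSC-4 cells, read out with a cell viability assay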
Description: SANGER: Inhibition of human HSC-4 cell growth in a cell viability assay.

[30] = test system: GCT; format: functional, cell-based; details: Homo sapiens;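 note: GCT cell line proliferation inhibition, read out with a cell viability assay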
Description: SANGER: Inhibition of human GCT cell growth in a cell viability assay.

[31] = test system: EW-24; format: functional, cell-based, Homo sapiens; details: Homo sapiens, EW-24;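 note: human EW-24 cancer cell line, growth inhibition read out via a cell viability assay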
Description: SANGER: Inhibition of human EW-24 cell growth in a cell viability assay.

[32] = test system: SNU-387; format: functional, cell-based; details: Homo sapiens
Description: SANGER: Inhibition of human SNU-387 cell growth in a cell viability assay.

[33] = test system: G-402; format: functional, cell-based; details: Homo sapiens
Description: SANGER: Inhibition of human G-402 cell growth in a cell viability assay.

[34] = test system: HT-29; format: functional, cell-based; details: Homo sapiens;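 note: growth inhibition of human HT-29 cells, read out by a cell viability assay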
Description: SANGER: Inhibition of human HT-29 cell growth in a cell viability assay.

[35] = test system: UMC-11; format: functional, cell-based; details: Homo sapiens;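 note: growth inhibition of UMC-11 cells, read out with a cell viability assay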
Description: SANGER: Inhibition of human UMC-11 cell growth in a cell viability assay.

[36] = test system: D-392MG; format: functional, cell-based; details: Homo sapiens
[37] = test system: KYSE-410; format: functional, cell-based; details: Homo sapiens;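 note: growth inhibition of KYSE-410 cells, measured through a cell viability readout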
Description: SANGER: Inhibition of human KYSE-410 cell growth in a cell viability assay.

[38] = test system: HMV-2 cell line; format: functional, cell-based; details: Homo sapiens;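 note: growth inhibition of HMV-II cells, read out with a cell viability assay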
Description: SANGER: Inhibition of human HMV-II cell growth in a cell viability assay.

[39] = test system: MFE-280; format: functional, cell-based; details: Homo sapiens;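 note: growth inhibition of MFE-280 cells, determined with a cell viability readout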
Description: SANGER: Inhibition of human MFE-280 cell growth in a cell viability assay.

[40] = test system: RD; format: functional, cell-based; details: Homo sapiens
Description: SANGER: Inhibition of human RD cell growth in a cell viability assay.

[41] = test system: A-427; format: functional, cell-based; details: Homo sapiens;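 note: growth inhibition of human A-427 cells, read out by a cell viability assay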
Description: SANGER: Inhibition of human A427 cell growth in a cell viability assay.

[42] = test system: NCI-H2405; format: functional, cell-based; details: Homo sapiens;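 note: growth inhibition of the human cell line, read out with a cell viability assay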
Description: SANGER: Inhibition of human NCI-H2405 cell growth in a cell viability assay.

[43] = test system: SW48; format: functional, cell-based; details: Homo sapiens;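 note: growth inhibition of SW48 cells, read out with a cell viability assay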
Description: SANGER: Inhibition of human SW48 cell growth in a cell viability assay.

[44] = test system: COR-L105; format: functional, cell-based; details: Homo sapiens;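 note: cell growth inhibition determined with a viability assay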
Description: SANGER: Inhibition of human COR-L105 cell growth in a cell viability assay.

[45] = test system: T98G; format: functional, cell-based; details: Homo sapiens;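 note: growth inhibition of T98G cells, read out by a cell viability assay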
Description: SANGER: Inhibition of human T98G cell growth in a cell viability assay.

Question: With `NC(=O)Nc1cc(-c2cccc(F)c2)sc1C(=O)N[C@H]1CCCNC1` [AZD-7762] as the molecule, how does the IC50 [1] read?
Answer: 198 nM

Question: And the IC50 [2]?
Answer: 8.56 nM

Question: What about the IC50 [3] of the same molecule?
Answer: > 2000 nM

Question: What about the IC50 [4] of the same molecule?
Answer: 287 nM

Question: What about the IC50 [5] of the same molecule?
Answer: 619 nM

Question: What about the IC50 [6] of the same molecule?
Answer: 1150 nM

Question: And the IC50 [7]?
Answer: 1200 nM

Question: What about the IC50 [8] of the same molecule?
Answer: 1480 nM

Question: What about the IC50 [9] of the same molecule?
Answer: 1020 nM

Question: What about the IC50 [10] of the same molecule?
Answer: 350 nM

Question: What about the IC50 [11] of the same molecule?
Answer: > 2000 nM

Question: What about the IC50 [12] of the same molecule?
Answer: 316 nM

Question: And the IC50 [13]?
Answer: > 2000 nM

Question: What about the IC50 [14] of the same molecule?
Answer: 1040 nM

Question: And the IC50 [15]?
Answer: > 2000 nM

Question: What about the IC50 [16] of the same molecule?
Answer: > 2000 nM

Question: What about the IC50 [17] of the same molecule?
Answer: > 2000 nM

Question: And the IC50 [18]?
Answer: 1600 nM

Question: What about the IC50 [19] of the same molecule?
Answer: > 2000 nM

Question: And the IC50 [20]?
Answer: 1420 nM

Question: And the IC50 [21]?
Answer: 898 nM

Question: And the IC50 [22]?
Answer: 384 nM

Question: And the IC50 [23]?
Answer: 708 nM

Question: What about the IC50 [24] of the same molecule?
Answer: 755 nM

Question: What about the IC50 [25] of the same molecule?
Answer: 273 nM

Question: And the IC50 [26]?
Answer: 782 nM

Question: What about the IC50 [27] of the same molecule?
Answer: 430 nM

Question: What about the IC50 [28] of the same molecule?
Answer: 941 nM

Question: And the IC50 [29]?
Answer: 106 nM

Question: What about the IC50 [30] of the same molecule?
Answer: 649 nM

Question: What about the IC50 [31] of the same molecule?
Answer: 289 nM

Question: What about the IC50 [32] of the same molecule?
Answer: 243 nM

Question: And the IC50 [33]?
Answer: 64.6 nM

Question: What about the IC50 [34] of the same molecule?
Answer: 894 nM

Question: What about the IC50 [35] of the same molecule?
Answer: 1770 nM

Question: And the IC50 [36]?
Answer: 456 nM

Question: And the IC50 [37]?
Answer: 1040 nM

Question: And the IC50 [38]?
Answer: > 2000 nM

Question: And the IC50 [39]?
Answer: > 2000 nM

Question: And the IC50 [40]?
Answer: > 2000 nM

Question: What about the IC50 [41] of the same molecule?
Answer: 198 nM

Question: And the IC50 [42]?
Answer: > 2000 nM

Question: What about the IC50 [43] of the same molecule?
Answer: 792 nM

Question: What about the IC50 [44] of the same molecule?
Answer: 222 nM

Question: And the IC50 [45]?
Answer: 246 nM
